Assay results reported in article PMC12813973, “Consequences of Peptide Macrocyclization Revealed by Virus-Inspired β‑Hairpin Mimetics” (ACS Chemical Biology, 2025).
Like-named read-outs stand apart in the source and are kept apart here.

Target: T1, STAT1 (Homo sapiens, UniProt P42224)
T1 construct: full-length STAT1 (Uniprot #P42224-1) was expressed in E. coli; His tag (pEXP-NHis vector) (N); made in house; host or cells: E. coli T7 Express
T1 sequence (P42224 1-750): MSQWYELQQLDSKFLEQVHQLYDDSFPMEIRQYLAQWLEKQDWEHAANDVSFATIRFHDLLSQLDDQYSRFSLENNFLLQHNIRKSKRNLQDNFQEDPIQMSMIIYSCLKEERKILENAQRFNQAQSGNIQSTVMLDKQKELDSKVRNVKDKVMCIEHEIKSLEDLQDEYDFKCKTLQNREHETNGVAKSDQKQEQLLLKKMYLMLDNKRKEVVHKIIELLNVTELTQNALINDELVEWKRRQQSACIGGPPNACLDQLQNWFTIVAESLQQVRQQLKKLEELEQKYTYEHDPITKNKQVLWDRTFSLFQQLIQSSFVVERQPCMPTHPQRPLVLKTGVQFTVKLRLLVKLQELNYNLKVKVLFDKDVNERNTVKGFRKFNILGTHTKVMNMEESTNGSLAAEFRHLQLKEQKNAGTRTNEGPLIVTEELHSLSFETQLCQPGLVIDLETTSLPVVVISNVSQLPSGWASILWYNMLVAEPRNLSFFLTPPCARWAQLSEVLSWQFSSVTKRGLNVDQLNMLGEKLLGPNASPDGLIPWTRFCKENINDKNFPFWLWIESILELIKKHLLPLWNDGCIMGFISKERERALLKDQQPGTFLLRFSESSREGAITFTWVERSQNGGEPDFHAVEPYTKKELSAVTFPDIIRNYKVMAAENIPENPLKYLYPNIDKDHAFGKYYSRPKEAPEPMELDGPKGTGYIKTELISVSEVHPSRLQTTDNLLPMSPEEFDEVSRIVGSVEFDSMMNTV
Experiment: Isothermal titration calorimetry (ITC) of peptide binding to STAT1
Method: To determine affinities and thermodynamic profiles of binding, we performed isothermal titration calorimetry (ITC) experiments for peptides 1, 2, 3, 4, 7, and 8 (Figures A,B and S1,S2, Table S1). […] The experiments were repeated in two different buffer systems, TBST (50 mM Tris pH 8.0, 300 mM NaCl, 0.01% Tween-20) and PBST ([…], 150 mM NaCl, 0.01% Tween-20), to account for possible buffer protonation enthalpy artifacts. […]
Isothermal titration calorimetry (ITC)
ITC experiments were performed using a PEAQ ITC instrument (Malvern Panalytical) in either TBST (50 mM Tris pH 8.0, 300 mM NaCl, 0.5 mM TCEP, 0.01% Tween -20) or PBST (10 mM sodium phosphate pH 7.4, 150 mM NaCl, 0.01% Tween -20) as reaction buffers. STAT1 protein was buffer -exchanged into reaction buffer supplemented with 2% DMSO on a NAP -5 deslating column (Cytiv a #17085301) and its concentration was adjusted to 10 or 20 μM.
Peptides were diluted in reaction buffer from DMSO stocks to a matching 2% DMSO concentration. Peptide concentrations were adjusted to approximately 100-200 μM. ITC experiments were performed with STAT1 in the cell and peptides in the syringe at 25°C, with 750 RPM stirring, DP = 4 μcal/sec. 18 injections of 2 μl were performed over a 50 min titration.
Thermogram integra tion and isotherm fitting were performed using the PEAQ ITC analysis software (Malvern Panalytical ). Isotherms were fitted using a 1:1 binding model. Due to challenges in determining peptide concentrations with high accuracy , protein concentrations and stoichiometry (N=1.0) were kept constant during isotherm fitting, whereas peptide concentrations were allowed to vary. Fixing a single reactant concentration during fitting is acceptable given the sufficiently high C -values and isotherm curvature observed in the […]
Offset subtraction was implemented to remove injection heats.

[1] = PBST, replicate 1 (first listed run, Table S1)
[2] = PBST, replicate 2 (second listed run, Table S1)
[3] = PBST, replicate 3 (third listed run, Table S1)
[4] = TBST, replicate 1 (first listed run, Table S1)
[5] = TBST, replicate 2 (second listed run, Table S1)
[6] = TBST, replicate 3 (third listed run, Table S1)

CC[C@H](C)[C@H](NC(=O)[C@H](Cc1ccccc1)NC(=O)[C@@H](NC(=O)[C@H](CO)NC(=O)[C@H](Cc1c[nH]c2ccccc12)NC(=O)[C@H](CCSC)NC(C)=O)C(C)C)C(=O)N[C@@H](Cc1c[nH]cn1)C(=O)NCC(=O)N[C@@H](Cc1c[nH]cn1)C(=O)N[C@@H](CC(=O)O)C(=O)NCC(=O)N[C@@H](CO)C(=O)N[C@@H](CC(N)=O)C(=O)N[C@@H](CCCCN)C(=O)NCC(=O)N[C@@H](CO)C(=O)N[C@@H](CCCCN)C(=O)N[C@H](C(=O)N[C@@H](Cc1ccc(O)cc1)C(=O)N[C@H](C(N)=O)[C@@H](C)O)[C@@H](C)O [Peptide 1]
Kd (PBST pH 7.4 (NaPi, 150 mM NaCl, 0.01% Tween-20), average of 2–3 technical replicates, read-out: KD (ITC, summary Fig 2B)): 253 nM
-T∆S [1]: 13.8 kcal/mol
∆G [1]: -9.00 kcal/mol
∆H [1]: -22.8 kcal/mol
-T∆S [2]: 12.7 kcal/mol
∆G [2]: -9.17 kcal/mol
∆H [2]: -21.8 kcal/mol
-T∆S [3]: 13.7 kcal/mol
∆G [3]: -8.87 kcal/mol
∆H [3]: -22.6 kcal/mol
Kd (TBST (50 mM Tris pH 8.0, 300 mM NaCl, 0.01% Tween-20), 25°C, 1:1 model, average of three technical replicates ± SD (text and Fig 2A), SD, read-out: KD (ITC)): 533 ± 20 nM
-TΔS (ITC) (TBST, mean ± SD, SD): 10.10 ± 1.48 kcal/mol
ΔH (ITC) (TBST, mean ± SD, SD): -18.56 ± 1.55 kcal/mol
-T∆S [4]: 9.86 kcal/mol
∆G [4]: -8.54 kcal/mol
∆H [4]: -18.1 kcal/mol
-T∆S [5]: 8.75 kcal/mol
∆G [5]: -8.58 kcal/mol
∆H [5]: -17.3 kcal/mol
-T∆S [6]: 11.7 kcal/mol
∆G [6]: -8.55 kcal/mol
∆H [6]: -20.3 kcal/mol
